In US20240245702A1, “Inhibition of Lysine Demethylase 1 (Lsd1) Induces Differentiation of Hair Cells” (Massachusetts Eye and Ear Infirmary, priority 2018, published 2024):

Tests used:
[1] = test system: Atoh1; assay: qRT-PCR of Atoh1 in adult cochlea after noise damage and drug treatment; assay type: in vivo, mouse; conditions: deaf adult cochlea relative to the control, 3 days after treatment, p<0.05
Experimental: (§1) RNA extraction and PCR. For the LCPs, the organoids were treated with Cell Recovery Solution for at 1 hour and TrypleE for 20 minutes, then frozen in RLT buffer. RNA extractions were performed using the RNeasy Micro Kit (QIAGEN) and cDNA generated using ImProm-II Reverse Transcription Kit (Promega). TaqMan Real-Time PCR was performed in triplicates using the TaqMan Gene Expression Master Mix (ThermoFisher Scientific) on a StepOne Real-Time PCR machine (ThermoFisher Scientific). Ordinary One-way Anova was used to assess statistical significance. A minimum of three biologically distinct samples were analyzed for each condition.
(§2) Round window drug administration. We used four-week-old mice weighing 12-15 g. The animals were anesthetized with ketamine ([…], intraperitoneally [i.p.]) and xylazine ([…], i.p.) prior to surgery. An incision was made posterior to the pinna near the external meatus to expose the otic bulla and subsequently the round window niche. pargyline and CHIR99021 dissolved in DMSO were diluted in polyethylene glycol 400 (Sigma) to obtain final concentrations of 0.1 and 5 mM. This solution (total volume 1 ul) was injected into the round window niche of the left ear. Polyethylene glycol 400 with 10% DMSO was injected into the right ear as a control. Gelfoam was placed on the niche to maintain the solution, and the wound was closed. […]

[2] = test system: Axin2; assay: qRT-PCR of Axin2 in adult cochlea after noise damage and drug treatment; assay type: in vivo, mouse; conditions: 3 days after drug treatment of noise-damaged animals, p<0.05
Experimental: as §1, §2

[3] = test system: Hes1; assay: qRT-PCR of Hes1 in adult cochlea after noise damage and drug treatment; assay type: in vivo, mouse; conditions: 3 days after drug treatment of noise-damaged animals
Experimental: as §1, §2

[4] = test system: active β-catenin; assay: Western blot for active β-catenin in differentiating LCPs; assay type: cell-based, mouse; conditions: western blot after 4 days of differentiation, relative to untreated control
Experimental: Western blot analysis. For protein collection, cells were washed twice with PBS and then lysed by lysis buffer (20 mM HEPES, 400 mM NaCl, 1 mM EDTA, 0.1% NP-40 and 10% Glycerol) supplemented with HALT protease and phosphatase inhibitors (Thermo Fisher Scientific, Waltham, MA). Lysates were then centrifuged at 13,000 g for 15 min at 4° C., and each supernatant was collected. Protein concentration was determined using the Pierce BCA Protein Assay Kit (Pierce Biotechnology, Rockford, IL). Proteins within each lysate were separated by SDS-PAGE (Bio-Rad Laboratories, Inc., Hercules, CA) and transferred to polyvinylidene difluoride membranes. After incubation with primary antibody, membranes were washed with Tris-buffered saline with Tween 20 and exposed to an appropriate horseradish peroxidase-conjugated secondary antibody (Santa Cruz Biotechnology, Santa Cruz, CA); immunoblot signals were detected with Pierce ECL Western blotting substrate or ECL plus (Thermo Fisher Scientific, Waltham, MA).
Active canonical Wnt signaling is facilitated by the nuclear translocation of β-catenin, which binds with transcription factors of the Tcf/Lef family to activate transcription. To further validate our RNA-sequencing data, we proceeded to examine the levels of active β-catenin using western blot after pargyline treatment. […] We also analyzed Wnt activity in the treated cells using a Tcf/Lef reporter assay.

[5] = test system: Lgr5-expressing cochlear progenitors cells (LCPs); assay: Proliferation of Lgr5+ cochlear progenitors (LCPs) in organoid culture; assay type: cell-based, mouse; conditions: first 10 days in culture, Lgr5-nGFP mice cells, combined with CHIR99021
Experimental: Isolation and expansion of inner ear Lgr5+ cells. A recently published protocol was used to derive organoids from inner ear stem cells [also referred to as Lgr5+ cochlear progenitors (LCPs) (McLean et al., 2017). Briefly, the organ of Corti was dissected from neonatal mice (postnatal days 2-5) in Hank's balanced salt solution and treated with Cell Recovery Solution (Corning) for 1 hour. The cochlear epithelium was then peeled from the underlying mesenchyme, collected and treated with TrypleE for 20 minutes at 37° C. The single cells were mechanically triturated, filtered ([…] cell strainer) and suspended in a Matrigel (Corning) dome for 3D culture. The cells were seeded in a 24-well plate, specifically at one cochlea per well of a 24-well plate.
For the drug screening experiments, the expanded cells were passaged into a 96 well plate to test varying drug combinations. All experiments were done in triplicate at minimum. Atoh1-nGFP cells were quantified after 10 days in culture. The cell colonies were incubated in Cell Recovery Solution for 1 hour and dissociated into single cells using TrypleE. The total cell number and percentage of GFP+ cells were quantified using fluorescence activated cell sorting (FACS).
We screened a collection of Lsd1 inhibitors over the first 10 days in culture (FIGS. 9A and 9B) to examine their effect on proliferation of LCPs (FIGS. 9C and 9D). […]

Structure (SMILES): Cc1c[nH]c(-c2cnc(NCCNc3ccc(C#N)cn3)nc2-c2ccc(Cl)cc2Cl)n1 [CHIR99021]
- Atoh1 mRNA level [1]: significantly elevated
- Axin2 mRNA level [2]: significantly higher levels
- Hes1 mRNA level [3]: reduced levels
- active β-catenin, fold change [4]: 2.95 fold

Structure (SMILES): CCCC(CCC)C(=O)O [valproic acid]
- proliferation of Lgr5 cells (LCP cell division) [5]: 63%
